Consider 2 compounds from patent US20090054403A1, “Treatment of Post-Traumatic Stress Disorder” (priority 2007, published 2009).

A value given as a limit tells only on which side of the number the result lay.

One data set relates to body core temperature. Put plainly: Body core temperature during 10 day chronic dosing. The settings on record: b.i.d. oral: nepicastat 5, 15, 50 mg/kg; SKF-102698 50 mg/kg; clonidine 20 ug/kg; d-amphetamine 2 mg/kg; days 1, 5, 10. The protocol:
The effects of chronic dosing of nepicastat were examined. Between three and thirteen days prior to the first dosing day the rats were placed inside the startle apparatus and after a five minute acclimation period they were presented with a 118 dB noise burst on average once a minute (a variable inter-trial interval ranging between 30 and 90 seconds will be used) for 20 minutes. The startle responses were measured and a mean for the last twenty startle response was calculated for each rat.
Rat body core temperatures were obtained by inserting the rectal probe 2 cm into the colon of each rat. Each rat's body core temperature was measured three times and the average of the three reading was calculated. Body core temperature readings were obtained immediately prior to the ten day chronic dosing schedule (to obtain a baseline), and three and half hour after the morning daily dose of nepicastat, and SKF-102698, and 15 minutes prior to the daily administration of clonidine and d-amphetamine, on dosing days one, five and ten. […] Both clonidine (an alpha2 agonist), and d-amphetamine (a dopamine releaser) were used as the positive controls for this assay.
An overall one-way ANOVA with a main effect for treatment was performed at each time on the change from baseline for each animal. Subsequent t-tests were performed for each comparison of interest.

Data set [1] has as its target 5-HT1A serotonin receptors (Homo sapiens, UniProt P08908). Put plainly: Radioligand binding assay. As to the method:
(§1) The activity of nepicastat at twelve selected enzymes and receptors was determined using established assays. Details of individual receptor radioligand binding assays can be found in Wong et al (1993). Binding data were analyzed by iterative curve-fitting to a four parameter logistic equation. Ki values were calculated from IC50 values using the Cheng-Prusoff equation. Enzyme inhibitory activity was expressed as IC50 (concentration required to produce 50% inhibition of enzyme activity). Male SHRs (15-16 weeks old, Charles River, Wilmington, Mass., USA) were used in the study. On the day of the study, animals were weighed and randomly assigned to be dosed with either vehicle (control) or the appropriate dose of nepicastat (3, 10, 30 or 100 mg.kg^−1, po) or (R)-5-Aminomethyl-1-(5,7-difluoro-1,2,3,4-tetrahydronaphth-2-yl)-2,3-dihydro-2-thioxo-1H-imidazole hydrochloride (30 mg.kg^−1, po) three consecutive times, twelve hours apart. At six hours after the third dose, the rats were anaesthetized with halothane, decapitated and tissues (cerebral cortex, mesenteric artery and left ventricle) were rapidly harvested, weighed, placed in iced perchloric acid (0.4 M), frozen in liquid nitrogen and stored at −70° C. until subsequent analysis. To quantify noradrenaline and dopamine concentrations, tissues were homogenized by brief sonication and centrifuged at 13,000 rpm for 30 minutes at 4° C. The supernatant, spiked with 3,4-dihydroxybenzylamine (internal standard), was assayed for noradrenaline and dopamine by HPLC using electrochemical detection.
(§2) In vitro assay of selected enzymes and neurotransmitter receptors. The activity of 2a at eleven different enzymes was determined using established assays (PanLabs Inc, Foster City, Calif.). The affinity of 2a for thirteen selected receptors was determined by radioligand binding assays using standard filtration techniques and membrane preparations. Binding data were analyzed by iterative curve fitting to a four parameter logistic equation. Ki values were calculated using the Cheng-Prusoff equation.

Data set [2] has as its target 5-HT2A serotonin receptors (Homo sapiens, UniProt P28223). Put plainly: Radioligand binding assay. As to the method:
as §1, §2

In data set [3] the target is 5-HT2C serotonin receptors (Homo sapiens, UniProt P28335). Put plainly: Radioligand binding assay. The protocol:
as §1, §2

In the next data set the target is D1 dopamine receptors (Homo sapiens, UniProt P21728). Put plainly: Radioligand binding assay. The protocol:
as §1, §2

A further data set has as its target D2 dopamine receptors (Homo sapiens, UniProt P14416). Put plainly: Radioligand binding assay. The protocol:
as §1, §2

The next data set has as its target M1 muscarinic receptors (Homo sapiens, UniProt P11229). Put plainly: Radioligand binding assay. As to the method:
as §1, §2

The target in the next data set is α2A adrenoceptors (Homo sapiens, UniProt P08913). Put plainly: Radioligand binding assay. The protocol: as §1, §2
Another data set deals with α2B adrenoceptors (Homo sapiens, UniProt P18089). Put plainly: Radioligand binding assay. The protocol:
as §1, §2

In a further data set the target is β1 adrenoceptors (Homo sapiens, UniProt P08588). Put plainly: Radioligand binding assay. The protocol: as §1, §2
The target in the next data set is β2 adrenoceptors (Homo sapiens, UniProt P07550). Put plainly: Radioligand binding assay. As to the method:
as §1, §2

The target in a further data set is μ opioid receptors (Homo sapiens, UniProt P35372). Put plainly: Radioligand binding assay. The protocol:
as §1, §2

In another data set the target is ⊕1B adrenoceptors (Homo sapiens, UniProt P35368). Put plainly: Radioligand binding assay. The protocol: as §1, §2
Data set [4] has as its target all other receptors examined. Put plainly: Radioligand filtration binding (Example 19). As to the method: (§3) The affinity of nepicastat was determined in the bindings assays outlined in FIG. 97. Standard radioligand filtration binding methods were used. Competition binding data were analyzed by iterative curve fitting to a four parameter logistic equation. Hill coefficients and IC50 were obtained directly. pKi (−log of Ki) of competing ligands were calculated from IC50 values using the Cheng-Prusoff equation.

The target of another data set is alpha1 receptors. Put plainly: Radioligand filtration binding (Example 19). As to the method: as §3
The test system of the next data set is plasma renin activity. Put plainly: Plasma renin activity after 5 days oral dosing. Type of data set: in vivo, SHR. The settings on record: 30 and 100 mg/kg/d p.o. for 5 days.

Sequence of 5-HT1A serotonin receptors (P08908 whole entry): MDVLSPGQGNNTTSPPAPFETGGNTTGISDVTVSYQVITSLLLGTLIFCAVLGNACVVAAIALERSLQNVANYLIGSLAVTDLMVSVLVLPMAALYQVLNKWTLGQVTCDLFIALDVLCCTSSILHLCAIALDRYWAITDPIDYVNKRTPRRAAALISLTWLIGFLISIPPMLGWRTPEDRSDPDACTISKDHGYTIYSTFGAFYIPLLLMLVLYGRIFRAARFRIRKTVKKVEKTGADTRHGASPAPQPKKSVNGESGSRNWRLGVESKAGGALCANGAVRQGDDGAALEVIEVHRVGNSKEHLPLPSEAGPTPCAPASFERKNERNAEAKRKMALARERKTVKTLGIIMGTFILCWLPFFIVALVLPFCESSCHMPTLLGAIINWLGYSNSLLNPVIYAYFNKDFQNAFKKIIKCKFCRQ
Sequence of α2A adrenoceptors (P08913 whole entry): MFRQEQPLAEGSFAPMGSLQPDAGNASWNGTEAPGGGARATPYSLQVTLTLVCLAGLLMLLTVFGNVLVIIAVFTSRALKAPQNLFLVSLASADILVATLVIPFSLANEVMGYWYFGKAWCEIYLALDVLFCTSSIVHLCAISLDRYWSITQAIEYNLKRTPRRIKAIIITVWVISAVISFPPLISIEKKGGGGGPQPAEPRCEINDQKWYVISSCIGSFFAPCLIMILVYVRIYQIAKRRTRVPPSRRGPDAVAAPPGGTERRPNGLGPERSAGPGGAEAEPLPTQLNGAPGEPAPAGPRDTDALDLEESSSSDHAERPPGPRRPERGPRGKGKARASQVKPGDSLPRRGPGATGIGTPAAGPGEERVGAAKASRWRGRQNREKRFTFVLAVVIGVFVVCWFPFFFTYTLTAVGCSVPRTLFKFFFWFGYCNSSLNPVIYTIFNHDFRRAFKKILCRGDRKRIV
Sequence of M1 muscarinic receptors (P11229 whole entry): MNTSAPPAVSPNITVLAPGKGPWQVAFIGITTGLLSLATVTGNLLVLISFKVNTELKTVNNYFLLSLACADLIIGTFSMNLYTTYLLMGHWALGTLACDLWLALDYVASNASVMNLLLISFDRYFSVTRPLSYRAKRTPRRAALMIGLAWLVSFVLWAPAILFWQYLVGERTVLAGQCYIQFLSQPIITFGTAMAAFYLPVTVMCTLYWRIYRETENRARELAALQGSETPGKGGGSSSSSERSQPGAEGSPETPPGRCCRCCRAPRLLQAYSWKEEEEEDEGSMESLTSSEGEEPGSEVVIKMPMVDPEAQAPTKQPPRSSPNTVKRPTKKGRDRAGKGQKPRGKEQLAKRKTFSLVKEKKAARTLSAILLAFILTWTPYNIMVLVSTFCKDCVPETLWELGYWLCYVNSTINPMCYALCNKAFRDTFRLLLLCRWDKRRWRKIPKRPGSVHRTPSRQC
Sequence of β2 adrenoceptors (P07550 whole entry): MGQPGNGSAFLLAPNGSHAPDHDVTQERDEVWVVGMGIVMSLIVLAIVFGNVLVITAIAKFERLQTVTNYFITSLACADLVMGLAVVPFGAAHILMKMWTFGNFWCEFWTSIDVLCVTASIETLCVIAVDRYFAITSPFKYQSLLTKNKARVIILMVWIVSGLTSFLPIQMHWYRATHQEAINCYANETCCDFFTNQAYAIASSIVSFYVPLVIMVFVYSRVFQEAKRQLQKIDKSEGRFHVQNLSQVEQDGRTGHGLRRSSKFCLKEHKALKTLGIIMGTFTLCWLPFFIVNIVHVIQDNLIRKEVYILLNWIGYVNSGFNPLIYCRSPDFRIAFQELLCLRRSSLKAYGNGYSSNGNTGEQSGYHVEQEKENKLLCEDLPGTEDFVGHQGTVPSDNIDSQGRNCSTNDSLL
Sequence of 5-HT2C serotonin receptors (P28335 33-458): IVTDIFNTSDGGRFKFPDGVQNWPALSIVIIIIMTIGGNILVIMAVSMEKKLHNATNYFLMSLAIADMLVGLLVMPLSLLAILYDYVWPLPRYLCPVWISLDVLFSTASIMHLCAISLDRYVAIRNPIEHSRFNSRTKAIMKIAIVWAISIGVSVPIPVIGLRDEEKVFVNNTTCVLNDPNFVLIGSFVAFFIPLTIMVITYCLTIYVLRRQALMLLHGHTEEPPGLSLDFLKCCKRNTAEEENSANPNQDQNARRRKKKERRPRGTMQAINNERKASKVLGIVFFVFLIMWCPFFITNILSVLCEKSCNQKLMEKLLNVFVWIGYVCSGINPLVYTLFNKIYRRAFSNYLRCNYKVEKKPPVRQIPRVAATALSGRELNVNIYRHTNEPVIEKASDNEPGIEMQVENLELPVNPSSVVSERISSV
Sequence of D2 dopamine receptors (P14416 whole entry): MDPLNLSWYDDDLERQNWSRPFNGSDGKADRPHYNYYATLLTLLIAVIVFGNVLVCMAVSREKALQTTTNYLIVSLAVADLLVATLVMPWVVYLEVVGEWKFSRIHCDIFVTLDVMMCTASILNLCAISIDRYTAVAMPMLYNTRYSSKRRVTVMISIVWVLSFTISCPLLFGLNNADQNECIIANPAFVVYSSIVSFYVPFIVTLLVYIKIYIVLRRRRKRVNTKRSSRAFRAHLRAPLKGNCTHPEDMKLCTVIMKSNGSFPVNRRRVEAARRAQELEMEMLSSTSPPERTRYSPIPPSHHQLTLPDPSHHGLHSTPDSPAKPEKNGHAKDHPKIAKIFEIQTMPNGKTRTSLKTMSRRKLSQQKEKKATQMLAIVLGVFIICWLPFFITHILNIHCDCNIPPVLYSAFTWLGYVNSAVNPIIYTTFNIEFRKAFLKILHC
Sequence of ⊕1B adrenoceptors (P35368 whole entry): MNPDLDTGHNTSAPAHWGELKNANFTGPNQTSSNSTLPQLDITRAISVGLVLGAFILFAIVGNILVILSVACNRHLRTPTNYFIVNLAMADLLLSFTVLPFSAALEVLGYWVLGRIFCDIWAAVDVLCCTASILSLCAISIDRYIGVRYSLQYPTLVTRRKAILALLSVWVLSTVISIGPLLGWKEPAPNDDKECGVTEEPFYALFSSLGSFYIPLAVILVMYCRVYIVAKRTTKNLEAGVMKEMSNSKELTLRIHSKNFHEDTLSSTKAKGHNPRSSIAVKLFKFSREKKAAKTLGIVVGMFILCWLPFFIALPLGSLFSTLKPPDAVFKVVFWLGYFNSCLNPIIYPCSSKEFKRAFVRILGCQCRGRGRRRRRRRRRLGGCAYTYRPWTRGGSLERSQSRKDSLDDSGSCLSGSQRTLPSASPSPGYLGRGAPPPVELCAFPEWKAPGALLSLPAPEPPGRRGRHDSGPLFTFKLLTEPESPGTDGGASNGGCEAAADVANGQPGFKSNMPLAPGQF
Sequence of D1 dopamine receptors (P21728 whole entry): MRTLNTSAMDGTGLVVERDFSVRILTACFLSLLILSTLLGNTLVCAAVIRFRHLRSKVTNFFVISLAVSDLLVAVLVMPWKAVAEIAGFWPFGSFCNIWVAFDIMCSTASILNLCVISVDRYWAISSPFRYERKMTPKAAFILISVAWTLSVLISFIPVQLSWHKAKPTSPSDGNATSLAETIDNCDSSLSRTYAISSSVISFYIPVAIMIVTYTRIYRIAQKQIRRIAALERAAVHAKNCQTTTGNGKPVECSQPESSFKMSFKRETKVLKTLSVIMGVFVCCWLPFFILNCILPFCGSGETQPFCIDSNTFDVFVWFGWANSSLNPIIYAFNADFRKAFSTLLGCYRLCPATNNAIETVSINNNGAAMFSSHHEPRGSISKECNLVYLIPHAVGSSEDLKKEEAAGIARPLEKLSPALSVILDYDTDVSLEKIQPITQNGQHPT
Sequence of α2B adrenoceptors (P18089 whole entry): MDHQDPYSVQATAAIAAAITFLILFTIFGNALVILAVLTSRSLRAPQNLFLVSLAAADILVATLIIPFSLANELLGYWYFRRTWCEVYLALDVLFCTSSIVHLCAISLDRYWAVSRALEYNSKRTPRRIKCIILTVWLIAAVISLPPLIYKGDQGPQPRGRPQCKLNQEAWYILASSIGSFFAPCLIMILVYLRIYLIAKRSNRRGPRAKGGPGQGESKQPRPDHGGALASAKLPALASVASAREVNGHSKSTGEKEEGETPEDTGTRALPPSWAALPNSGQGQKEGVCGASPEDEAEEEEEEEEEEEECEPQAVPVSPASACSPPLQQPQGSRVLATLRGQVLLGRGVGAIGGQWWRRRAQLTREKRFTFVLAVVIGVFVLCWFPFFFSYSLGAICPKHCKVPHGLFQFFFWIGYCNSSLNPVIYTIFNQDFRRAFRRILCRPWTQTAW
Sequence of β1 adrenoceptors (P08588 whole entry): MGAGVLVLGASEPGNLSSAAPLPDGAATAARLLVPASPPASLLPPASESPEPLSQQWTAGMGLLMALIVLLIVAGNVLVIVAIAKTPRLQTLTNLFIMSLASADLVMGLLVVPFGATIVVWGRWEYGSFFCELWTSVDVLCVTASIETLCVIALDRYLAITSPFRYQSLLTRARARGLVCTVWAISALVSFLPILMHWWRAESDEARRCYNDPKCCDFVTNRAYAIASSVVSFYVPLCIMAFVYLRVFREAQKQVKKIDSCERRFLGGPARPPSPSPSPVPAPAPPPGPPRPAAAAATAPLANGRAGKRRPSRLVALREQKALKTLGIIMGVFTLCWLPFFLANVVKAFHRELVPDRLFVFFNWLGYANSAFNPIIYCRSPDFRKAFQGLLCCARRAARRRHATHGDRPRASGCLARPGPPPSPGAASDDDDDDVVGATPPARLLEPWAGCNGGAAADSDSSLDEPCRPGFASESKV
Sequence of μ opioid receptors (P35372 whole entry): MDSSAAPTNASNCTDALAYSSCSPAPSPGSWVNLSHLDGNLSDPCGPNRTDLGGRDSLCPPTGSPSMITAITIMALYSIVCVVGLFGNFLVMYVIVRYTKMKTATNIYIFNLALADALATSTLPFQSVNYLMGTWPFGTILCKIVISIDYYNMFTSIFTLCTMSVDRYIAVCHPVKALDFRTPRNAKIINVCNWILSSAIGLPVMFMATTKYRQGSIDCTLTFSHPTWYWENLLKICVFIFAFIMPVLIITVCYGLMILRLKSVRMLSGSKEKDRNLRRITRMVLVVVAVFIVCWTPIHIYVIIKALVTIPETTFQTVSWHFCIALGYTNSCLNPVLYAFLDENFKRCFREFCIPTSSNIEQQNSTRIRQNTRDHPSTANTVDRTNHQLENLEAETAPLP

As for `Fc1cc(F)cc(Cn2cc[nH]c2=S)c1` [SKF 102698, reference compound], in the data set on body core temperature, the body core temperature result is given as “Lack of Effect”.
In general, Ki refers to the equilibrium dissociation constant of an inhibitor or competing ligand from its target. Read a low Ki as higher affinity. A word on the pKi: it is the negative decadic logarithm of the Ki, by convention in mol/L. Lower therefore signals a high Ki. For `Cl.NCc1c[nH]c(=S)n1[C@H]1CCc2c(F)cc(F)cc2C1` [nepicastat, (S)-5-Aminomethyl-1-(5,7-difluoro-1,2,3,4-tetrahydronaphth-2-yl)-2,3-dihydro-2-thioxo-1H-imidazole hydrochloride], the Ki (in data set [1]; in data set [2]; in data set [3]; on D1 dopamine receptors; at D2 dopamine receptors; on M1 muscarinic receptors) was over 10 µM each time. Besides, the Ki at α2A adrenoceptors, at α2B adrenoceptors, on β1 adrenoceptors, on β2 adrenoceptors, at μ opioid receptors and on ⊕1B adrenoceptors was over 10 µM each time. Also, the figures for the pKi (in data set [4]; on alpha1 receptors) were under 6.2 and 6.9-6.7, respectively. In the data set on plasma renin activity, the plasma renin activity result is “did not alter plasma renin activity”.
